Experimental data published in US20220257764A1, “USE OF DIKETONE COMPOUND IN PHOTODYNAMIC THERAPY OR DIAGNOSIS” (BEIJING WHOLESOMETECH CO., LTD., priority 2019, published 2022).

Key:
[1] = Blood routine and blood biochemical indicators of tumor-bearing mice after 2 weeks of treatment; assay type: in vivo, BALB/C mice; set-up: Mean corpuscular hemoglobin (MCH) / Mean corpuscular volume (MCV) / Red blood cell volume distribution width (RDW) / Hematocrit (HCT) / Hemoglobin (HGB): unit not given here; conditions: for Hematocrit (HCT) / Hemoglobin (HGB) / Mean corpuscular hemoglobin (MCH) / Mean corpuscular hemoglobin concentration (MCHC) / Mean corpuscular volume (MCV) / Mean platelet volume (MPV) / Platelet count (PLT) / Platelet distribution width (PDW) / Plateletocrit (PCT) / Red blood cell volume distribution width (RDW) / Red blood count (RBC) / White blood cell count (WBC): after 2 weeks
Description: 1. Photodynamic therapy experiments on tumors were carried out by using BJMU-204 as a photosensitizer and BALB/C mice as experimental animals.
Modeling mode: BALB/C mice were divided into 5 groups in total, 11-12 mice in each group. 4T1 cells (breast cancer cells in mice) were resuscitated and subcultured to a better cell state for tumorigenesis inoculation. BALB/C mice were locally depilated and disinfected, and tumor cells were injected into the mouse mammary fat pad in situ. Tumors were formed within 7 to 10 days.
Administration time: drug intervention was given to mice after tumor formation, and photodynamic therapy was given by intratumoral injection every other day under the irradiation of laser with a wavelength of 450 nm to 480 nm at a light intensity of 200 mW/cm^2.
Administration mode: as shown in the table below, the photosensitizer was dissolved in physiological saline and injected in mice in groups 1-3 intratumorally, and the groups receiving photodynamic therapy were irradiated with light immediately after the injection.
2. Mice in each experimental group were subjected to blood collection for serum separation and necropsy, and tumors were taken out and measured to obtain their wet weights; tumor tissues were fixed, pathological examinations were performed, and H. E. staining was used to observe the changes of tumors of the mice under an optical microscope; blood routine indicators (including white blood cell count (WBC), red blood cell count (RBC), lymphocyte count (LY), platelet count (PLT) and many other blood routine indicators) and blood biochemical indicators (including routine blood biochemical indicators) were tested and analyzed in the Laboratory of Peking University Third Hospital.

[2] = test system: B16 melanoma cell; assay: MTT toxicity to tumor cells, under light and in the dark; assay type: cell-based; conditions: Mus musculus, under light, 450-480 nm laser, 110 mW/cm^2, 900 s
Description: (§1) In this experimental example, the toxicity of the compound to tumor cells was tested by an MTT method including the following specific steps.
(§2) (1) Logarithmic cells were collected, the concentration of a cell suspension was adjusted, the cell suspension was added to a cell culture plate in a dose of 100 μL per well, and the cells were then added to a cell culture plate so that the density of the cells to be tested was adjusted to 1000-10000 wells (edge wells were filled with sterile PBS).
(§3) (2) The cells were incubated at 37° C. in the presence of 5% CO2 until the cells in a single layer covered the bottom of each well (96-well flat-bottom plate), and a drug in concentration gradients was added. Generally, the drug in 5 to 7 gradients was added in a dose of 100 μL per well, and 3 to 5 multi-wells were set.
(§4) (3) The cells were randomly divided into treated groups under light and treated groups in the dark, incubated at 37° C. in the presence of 5% CO2 for 16 h to 48 h, and observed with an inverted microscope.
(§5) (4) The cells were irradiated for 900 s with a laser having a wavelength of 450 nm to 480 nm (at an intensity of 110 mW/cm^2), and the final light dose was about 100 J/cm^2. After light irradiation, the cells were washed with PBS.
(§6) (5) An MTT solution (5 mg/ml, 0.5% MTT) was added in a dose of 20 μL per well to further incubate the cells for 4 h. If the drug could react with the MTT, centrifuging was carried out first, and then the culture solution was discarded and the cells were carefully washed twice or three times with PBS, and then the culture solution containing MTT was added.
(§7) (6) The culture was terminated and the culture solution in the wells was carefully removed.
(§8) (7) Dimethyl sulfoxide was added in a dose of 150 μL per well, and the plate was then shaken on a shaker at a low speed for 10 min to fully dissolve crystals. The absorbance at OD 490 nm of each well was measured with enzyme-linked immunoassay.
(§9) (8) Zero adjustment wells (medium, MTT, dimethyl sulfoxide) and control wells (cells, dissolving media of the same concentration, culture solution, MTT, dimethyl sulfoxide) were set at the same time.

[3] = test system: Hela cells; assay: as above; assay type: cell-based; conditions: Homo sapiens, under light, 450-480 nm laser, 110 mW/cm^2, 900 s
Description: as §1, §2, §3, §4, §5, §6, §7, §8, §9

[4] = test system: SW480 colon cancer cells; assay: as above; assay type: cell-based; conditions: Homo sapiens, SW480; under light, 450-480 nm laser, 110 mW/cm^2, 900 s
Description: as §1, §2, §3, §4, §5, §6, §7, §8, §9

[5] = Control group-1: intratumoral injection 3%, no light
[6] = High-concentration (3%) intratumoral injection + light 10 min
[7] = Low-concentration (0.5%) intratumoral injection + light 10 min

CC(=O)C(C)=O [BJMU-204]
Hematocrit (HCT) [1, 5]: 28.8 ± 5.76
Hemoglobin (HGB) [1, 5]: 117 ± 26.64
Mean corpuscular hemoglobin (MCH) [1, 5]: 18.43 ± 0.67
Mean corpuscular hemoglobin concentration (MCHC) [1, 5]: 404.5 ± 26.01
Mean corpuscular volume (MCV) [1, 5]: 45.65 ± 1.35
Mean platelet volume (MPV) [1, 5]: 6.1 ± 0
Platelet count (PLT) [1, 5]: 312 ± 125.04
Platelet distribution width (PDW) [1, 5]: 16.2 ± 0
Plateletocrit (PCT) [1, 5]: 0.24 ± 0
Red blood cell volume distribution width (RDW) [1, 5]: 14.18 ± 0.75
Red blood count (RBC) [1, 5]: 6.33 ± 1.36
White blood cell count (WBC) [1, 5]: 352.8 ± 45.95
Hematocrit (HCT) [1, 6]: 32.4 ± 12.48
Hemoglobin (HGB) [1, 6]: 123 ± 40.8
Mean corpuscular hemoglobin (MCH) [1, 6]: 18.43 ± 1.93
Mean corpuscular hemoglobin concentration (MCHC) [1, 6]: 387.5 ± 40.38
Mean corpuscular volume (MCV) [1, 6]: 47.5 ± 1.95
Mean platelet volume (MPV) [1, 6]: 6.63 ± 0.76
Platelet count (PLT) [1, 6]: 267 ± 167.28
Platelet distribution width (PDW) [1, 6]: 15.13 ± 0.76
Plateletocrit (PCT) [1, 6]: 0.24 ± 0.12
Red blood cell volume distribution width (RDW) [1, 6]: 14.58 ± 0.84
Red blood count (RBC) [1, 6]: 6.81 ± 2.51
White blood cell count (WBC) [1, 6]: 136.8 ± 31.45
Hematocrit (HCT) [1, 7]: 32.64 ± 12.12
Hemoglobin (HGB) [1, 7]: 141.6 ± 42.72
Mean corpuscular hemoglobin (MCH) [1, 7]: 20.1 ± 1.84
Mean corpuscular hemoglobin concentration (MCHC) [1, 7]: 447 ± 48.54
Mean corpuscular volume (MCV) [1, 7]: 45.04 ± 1.21
Mean platelet volume (MPV) [1, 7]: 6.23 ± 0.61
Platelet count (PLT) [1, 7]: 494.4 ± 387.6
Platelet distribution width (PDW) [1, 7]: 13.37 ± 1.47
Plateletocrit (PCT) [1, 7]: 0.48 ± 0.24
Red blood cell volume distribution width (RDW) [1, 7]: 13.78 ± 0.59
Red blood count (RBC) [1, 7]: 7.22 ± 2.62
White blood cell count (WBC) [1, 7]: 193.5 ± 70
number of platelets and white blood cells in the blood ([1]; treated groups vs control groups (p<0.001), after 2 weeks of treatment): decreases
liver, kidney and blood toxicity ([1]; tumor-bearing mice, continuous treatment for 14 days at high or low concentration therapeutic doses): will not cause liver, kidney and blood toxicity
IC50 [2]: 500 ± 30 nM
IC50 [3]: 600 ± 20 nM
IC50 [4]: 600 ± 50 nM
